18 compounds from ChEMBL document CHEMBL1909046, “DrugMatrix in vitro pharmacology data” can be followed below.

Series [1] can be described thus: DRUGMATRIX: Interleukin IL-1 radioligand binding (ligand: [125I] interleukin 1beta). It counts as cell membranes, Membrane. The settings on record: nih3t3; Not Active = under 50% inhibition at 10 µM.
Series [2] addresses Voltage-gated inwardly rectifying potassium channel KCNH2 (Homo sapiens, UniProt Q12809). The settings on record: hek293.
Series [3] has as its target D(3) dopamine receptor (Homo sapiens, UniProt P35462). Put plainly: DRUGMATRIX: Dopamine D3 radioligand binding (ligand: [3H] Spiperone). It counts as cell membranes, CHO, Membrane.
A short description of series [4]: DRUGMATRIX: GABAA, Flunitrazepam, Central radioligand binding (ligand: [3H] Flunitrazepam). It is filed as cell membranes, Rattus norvegicus, Wistar, Brain, Membrane. The settings on record: Not Active = under 50% inhibition at 10 µM.
The nature of series [5]: DRUGMATRIX: GABAA, Muscimol, Central radioligand binding (ligand: [3H] Muscimol). The following applies: Not Active = under 50% inhibition at 10 µM. It is filed as cell membranes, Rattus norvegicus, Wistar, Brain, Membrane.
Series [6] is described as follows: DRUGMATRIX: GABAA, Chloride Channel, TBOB radioligand binding (ligand: [3H] TBOB). It is filed as cell membranes, Rattus norvegicus, Wistar, Cerebral cortex, Membrane. The following applies: Not Active = under 50% inhibition at 10 µM.

D(3) dopamine receptor, sequence (P35462 whole entry): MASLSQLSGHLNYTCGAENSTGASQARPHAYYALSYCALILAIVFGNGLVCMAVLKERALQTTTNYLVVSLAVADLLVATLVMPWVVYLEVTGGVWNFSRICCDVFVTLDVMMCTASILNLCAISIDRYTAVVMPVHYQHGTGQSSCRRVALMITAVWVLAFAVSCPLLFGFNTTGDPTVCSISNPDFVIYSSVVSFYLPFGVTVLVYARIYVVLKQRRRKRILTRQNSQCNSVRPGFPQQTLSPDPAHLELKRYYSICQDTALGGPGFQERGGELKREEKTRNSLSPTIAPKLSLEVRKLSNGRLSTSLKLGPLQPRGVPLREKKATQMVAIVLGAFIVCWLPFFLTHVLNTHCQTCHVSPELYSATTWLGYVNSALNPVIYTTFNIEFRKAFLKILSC
Voltage-gated inwardly rectifying potassium channel KCNH2, sequence (Q12809 whole entry): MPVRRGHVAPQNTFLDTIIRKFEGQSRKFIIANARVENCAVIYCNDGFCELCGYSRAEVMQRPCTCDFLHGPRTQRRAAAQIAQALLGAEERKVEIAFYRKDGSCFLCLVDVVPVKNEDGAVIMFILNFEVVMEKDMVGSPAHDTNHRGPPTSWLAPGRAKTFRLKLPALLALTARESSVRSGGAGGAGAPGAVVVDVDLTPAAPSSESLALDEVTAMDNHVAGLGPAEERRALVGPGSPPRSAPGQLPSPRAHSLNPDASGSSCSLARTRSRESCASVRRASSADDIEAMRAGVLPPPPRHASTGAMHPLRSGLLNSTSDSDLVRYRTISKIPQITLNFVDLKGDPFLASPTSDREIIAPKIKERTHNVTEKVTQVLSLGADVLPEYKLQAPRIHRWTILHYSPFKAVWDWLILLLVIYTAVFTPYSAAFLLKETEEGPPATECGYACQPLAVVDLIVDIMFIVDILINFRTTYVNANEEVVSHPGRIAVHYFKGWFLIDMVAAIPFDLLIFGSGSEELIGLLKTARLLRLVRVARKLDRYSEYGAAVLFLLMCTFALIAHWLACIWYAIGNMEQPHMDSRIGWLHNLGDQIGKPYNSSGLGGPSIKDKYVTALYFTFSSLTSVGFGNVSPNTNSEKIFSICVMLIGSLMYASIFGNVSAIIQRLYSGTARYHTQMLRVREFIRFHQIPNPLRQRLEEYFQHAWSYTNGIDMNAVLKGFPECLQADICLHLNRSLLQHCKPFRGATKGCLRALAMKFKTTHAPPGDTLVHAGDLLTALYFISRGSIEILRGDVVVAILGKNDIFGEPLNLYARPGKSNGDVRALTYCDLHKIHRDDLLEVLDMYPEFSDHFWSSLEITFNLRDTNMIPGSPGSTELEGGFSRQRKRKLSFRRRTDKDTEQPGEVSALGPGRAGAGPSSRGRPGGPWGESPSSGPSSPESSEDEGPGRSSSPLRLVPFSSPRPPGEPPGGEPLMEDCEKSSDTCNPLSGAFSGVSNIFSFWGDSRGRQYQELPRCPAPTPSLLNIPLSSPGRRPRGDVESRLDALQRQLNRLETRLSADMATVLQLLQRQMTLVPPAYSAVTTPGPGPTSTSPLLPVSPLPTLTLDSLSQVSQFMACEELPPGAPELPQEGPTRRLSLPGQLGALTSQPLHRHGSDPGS

Consider `CC(C(=O)O)c1ccc2oc(-c3ccc(Cl)cc3)nc2c1` (centres undefined) [BENOXAPROFEN], for which the concentration for half-maximal inhibition (IC50) entry in series [1], in series [2], in series [3] (cho), in series [4], in series [5] and in series [6] was “Not Active” throughout. Further, the Ki result in series [1], in series [2], in series [4], in series [5] and in series [6] was “Not Active” throughout.

As to `COc1ccc2cc3[n+](cc2c1OC)CCc1cc2c(cc1-3)OCO2.[Cl-]` [BERBERINE CHLORIDE], the IC50 entry in series [1], in series [2], in series [3] (cho), in series [4], in series [5] and in series [6] was “Not Active” each time. In addition, the inhibition constant (Ki) entry in series [1], in series [2], in series [4], in series [5] and in series [6] was “Not Active” each time.

On to `O=C(O)CCNC(=O)c1ccccc1` [BETAMIPRON], for which the half-inhibitory concentration (IC50) result in series [1], in series [2], in series [3] (cho), in series [4], in series [5] and in series [6] was “Not Active” each time. The Ki result in series [1], in series [2], in series [4], in series [5] and in series [6] was “Not Active” in each case.

With `CC(=O)Oc1ccc(C(c2ccc(OC(C)=O)cc2)c2ccccn2)cc1` [BISACODYL], the 50% inhibitory concentration (IC50) entry in series [1], in series [2], in series [3] (cho), in series [4], in series [5] and in series [6] was “Not Active” throughout. In addition, the inhibition constant Ki entry in series [1], in series [2], in series [4], in series [5] and in series [6] was “Not Active” each time.

With `Cc1cc2c(OCC(CNC(C)(C)C)OC(=O)c3ccccc3)cccc2[nH]1` (centres undefined) [BOPINDOLOL], the IC50 result in series [1], in series [2], in series [3] (cho), in series [4], in series [5] and in series [6] was “Not Active” each time. The Ki result in series [1], in series [2], in series [4], in series [5] and in series [6] was “Not Active” throughout.

In the case of `Brc1c(NC2=NCCN2)ccc2nccnc12` [BRIMONIDINE], the IC50 entry in series [1], in series [2], in series [3] (cho), in series [4], in series [5] and in series [6] was “Not Active” in each case. Besides, the Ki result in series [1], in series [2], in series [4], in series [5] and in series [6] was “Not Active” throughout.

For the compound `CN(C)[C@@H]1C(O)=C(C(N)=O)C(=O)[C@@]2(O)C(O)=C3C(=O)c4c(O)ccc(Cl)c4[C@@](C)(O)[C@H]3C[C@@H]12` [CHLORTETRACYCLINE], the IC50 entry in series [1], in series [2], in series [3] (cho), in series [4], in series [5] and in series [6] was “Not Active” throughout. Besides, the Ki entry in series [1], in series [2], in series [4], in series [5] and in series [6] was “Not Active” in each case.

In the case of `CN/C(=N\CCSCc1nc[nH]c1C)NC#N` [CIMETIDINE], the IC50 result in series [1], in series [2], in series [3] (cho), in series [4], in series [5] and in series [6] was “Not Active” each time. In addition, the Ki entry in series [1], in series [2], in series [4], in series [5] and in series [6] was “Not Active” each time.

For the compound `CCC(=O)O[C@]1(C(=O)CCl)[C@@H](C)C[C@H]2[C@@H]3CCC4=CC(=O)C=C[C@]4(C)[C@@]3(F)[C@@H](O)C[C@@]21C` [CLOBETASOL PROPIONATE], the 50% inhibitory concentration (IC50) result in series [1], in series [2], in series [3] (cho), in series [4], in series [5] and in series [6] was “Not Active” each time. For the same compound, the Ki result in series [1], in series [2], in series [4], in series [5] and in series [6] was “Not Active” in each case.

Take `O=C1CN=C(c2ccccc2Cl)c2cc([N+](=O)[O-])ccc2N1` [CLONAZEPAM]: the concentration for half-maximal inhibition (IC50) entry in series [1] was “Not Active”; in series [2], “Not Active”; in series [3] (cho), “Not Active”; in series [4] (read-out: IC50), 4.93 nM; in series [5] it was “Not Active”; in series [6], “Not Active”. For the same compound, the inhibition constant Ki result was “Not Active” in series [1]; “Not Active” in series [2]; 4.02 nM in series [4] (read-out: Ki); “Not Active” in series [5]; “Not Active” in series [6].

In the case of `Nc1ccn([C@@H]2O[C@H](CO)[C@@H](O)[C@@H]2O)c(=O)n1` [CYTARABINE], the half-inhibitory concentration (IC50) entry in series [1], in series [2], in series [3] (cho), in series [4], in series [5] and in series [6] was “Not Active” each time. The inhibition constant Ki result in series [1], in series [2], in series [4], in series [5] and in series [6] was “Not Active” in each case.

As to `C[C@@H]1C[C@H]2[C@@H]3CCC4=CC(=O)C=C[C@]4(C)[C@@]3(F)[C@@H](O)C[C@]2(C)[C@H]1C(=O)CO` [DESOXIMETASONE], the concentration for half-maximal inhibition (IC50) result in series [1], in series [2], in series [3] (cho), in series [4], in series [5] and in series [6] was “Not Active” throughout. Besides, the Ki result in series [1], in series [2], in series [4], in series [5] and in series [6] was “Not Active” each time.

For `C[C@@H]1C[C@H]2[C@@H]3CCC4=CC(=O)C=C[C@]4(C)[C@@]3(F)[C@@H](O)C[C@]2(C)[C@@]1(O)C(=O)CO` [DEXAMETHASONE], the concentration for half-maximal inhibition (IC50) entry in series [1], in series [2], in series [3] (cho), in series [4], in series [5] and in series [6] was “Not Active” throughout. Also, the inhibition constant (Ki) entry in series [1], in series [2], in series [4], in series [5] and in series [6] was “Not Active” each time.

On to `CN(C)CC[C@@H](c1ccc(Cl)cc1)c1ccccn1` [DEXCHLORPHENIRAMINE], for which the IC50 entry in series [1], in series [2], in series [3] (cho), in series [4], in series [5] and in series [6] was “Not Active” each time. The Ki entry in series [1], in series [2], in series [4], in series [5] and in series [6] was “Not Active” each time.

In the case of `C[C@@H]1CC[C@@]2(OC1)O[C@H]1[C@@H](O)[C@H]3[C@@H]4CC[C@H]5C[C@@H](O[C@@H]6O[C@H](CO)[C@H](O[C@@H]7O[C@H](CO)C(O)[C@H](O[C@@H]8OC[C@@H](O)[C@H](O)[C@H]8O)[C@H]7O[C@@H]7O[C@H](CO)[C@H](O)[C@H](O[C@@H]8O[C@H](CO)[C@@H](O)[C@H](O)[C@H]8O)[C@H]7O)[C@H](O)[C@H]6O)[C@H](O)C[C@]5(C)[C@H]4CC[C@]3(C)[C@H]1[C@@H]2C` (some centres undefined) [DIGITONIN], the half-inhibitory concentration (IC50) entry in series [1], in series [2], in series [3] (cho), in series [4], in series [5] and in series [6] was “Not Active” in each case. Also, the Ki result in series [1], in series [2], in series [4], in series [5] and in series [6] was “Not Active” each time.

Regarding `OC(CCCN1CCCCC1)(c1ccccc1)c1ccccc1` [DIPHENIDOL], the IC50 entry is “Not Active” in series [1]; “Not Active” in series [2]; 2310 nM in series [3] (read-out: IC50); “Not Active” in series [4]; “Not Active” in series [5]; “Not Active” in series [6]. In addition, the Ki result in series [1] was “Not Active”; in series [2] it was “Not Active”; in series [3] (read-out: Ki), 785 nM; in series [4], “Not Active”; in series [5], “Not Active”; in series [6], “Not Active”.

As to `C[C@H]1O[C@@H](n2cc(F)c(=O)[nH]c2=O)[C@H](O)[C@@H]1O` [DOXIFLURIDINE], the IC50 result in series [1], in series [2], in series [3] (cho), in series [4], in series [5] and in series [6] was “Not Active” throughout. Moreover, the Ki entry in series [1], in series [2], in series [4], in series [5] and in series [6] was “Not Active” throughout.

Consider `Cn1c(=O)c2c(ncn2CC(O)CO)n(C)c1=O` (centres undefined) [DYPHYLLINE], for which the concentration for half-maximal inhibition (IC50) entry in series [1], in series [2], in series [3] (cho), in series [4], in series [5] and in series [6] was “Not Active” in each case. For the same compound, the Ki entry in series [1], in series [2], in series [4], in series [5] and in series [6] was “Not Active” in each case.

By IC50 is commonly meant the midpoint of a concentration-inhibition curve. The Ki is the equilibrium dissociation constant of an inhibitor or competing ligand from its target.
